Laboratory results from ChEMBL document CHEMBL1201862, “PubChem BioAssay data set” (2004).
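In this assay, cells in 96-well plates receive the compound at five concentrations for 48 hours. Endpoints are linearly interpolated between the surrounding concentrations. GI50: concentration for 50% inhibition of growth.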 Activity calls are given as the source filed them. Cut-off read from the data, not from the text of the source: active = GI50 up to about 1.1 µM and inactive = higher.

Key:
Test in all cases: NCI-60 cell line screen, 48 h
CCRF-CEM = tested on: CCRF-CEM
RXF 393 = tested on: RXF 393
OVCAR-8 = tested on: OVCAR-8
SK-OV-3 = tested on: SK-OV-3
SF-295 = tested on: SF-295
U-251 = tested on: U-251
A549 = tested on: A549
SK-MEL-28 = tested on: SK-MEL-28
TK-10 = tested on: TK-10
SNB-19 = tested on: SNB-19
PC-3 = tested on: PC-3
MDA-MB-435 = tested on: MDA-MB-435
UACC-257 = tested on: UACC-257
DU-145 = tested on: DU-145
OVCAR-3 = tested on: OVCAR-3
SK-MEL-2 = tested on: SK-MEL-2
SF-539 = tested on: SF-539
M14 = tested on: M14
OVCAR-5 = tested on: OVCAR-5
SNB-75 = tested on: SNB-75
UACC-62 = tested on: UACC-62
SF-268 = tested on: SF-268
SK-MEL-5 = tested on: SK-MEL-5
Hs-578T = tested on: Hs-578T
HCC 2998 = tested on: HCC 2998
A498 = tested on: A498
MDA-MB-231 = tested on: MDA-MB-231
SW-620 = tested on: SW-620
KM12 = tested on: KM12
EKVX = tested on: EKVX
NCI-H23 = tested on: NCI-H23
HOP-62 = tested on: HOP-62
NCI-H226 = tested on: NCI-H226
MDA-N = tested on: MDA-N
UO-31 = tested on: UO-31
CAKI-1 = tested on: CAKI-1
T47D = tested on: T47D
COLO 205 = tested on: COLO 205
NCI/ADR-RES = tested on: NCI/ADR-RES
MCF7 = tested on: MCF7
OVCAR-4 = tested on: OVCAR-4
HCT-15 = tested on: HCT-15
RPMI-8226 = tested on: RPMI-8226
MOLT-4 = tested on: MOLT-4
ACHN = tested on: ACHN
SN12C = tested on: SN12C
BT-549 = tested on: BT-549
HCT-116 = tested on: HCT-116
Malme-3M = tested on: Malme-3M
IGROV-1 = tested on: IGROV-1
786-0 = tested on: 786-0
SR = tested on: SR
NCI-H522 = tested on: NCI-H522
LOX IMVI = tested on: LOX IMVI
HL-60 = tested on: HL-60
HOP-92 = tested on: HOP-92
K562 = tested on: K562
HT-29 = tested on: HT-29
NCI-H460 = tested on: NCI-H460

SMILES: Cc1cn(C2CC(O)C(Cn3cc(Cn4nc(Br)c(=O)[nH]c4=O)nn3)O2)c(=O)[nH]c1=O (stereo unspecified)
- GI50 (CCRF-CEM): 0.332 µM (active)
- GI50 (RXF 393): > 100 µM (inactive)
- GI50 (OVCAR-8): > 100 µM (inactive)
- GI50 (SK-OV-3): > 100 µM (inactive)
- GI50 (SF-295): > 100 µM (inactive)
- GI50 (U-251): > 100 µM (inactive)
- GI50 (A549): > 100 µM (inactive)
- GI50 (SK-MEL-28): > 100 µM (inactive)
- GI50 (TK-10): > 100 µM (inactive)
- GI50 (SNB-19): > 100 µM (inactive)
- GI50 (PC-3): > 100 µM (inactive)
- GI50 (MDA-MB-435): > 100 µM (inactive)
- GI50 (UACC-257): > 100 µM (inactive)
- GI50 (DU-145): > 100 µM (inactive)
- GI50 (OVCAR-3): > 100 µM (inactive)
- GI50 (SK-MEL-2): > 100 µM (inactive)
- GI50 (SF-539): > 100 µM (inactive)
- GI50 (M14): > 100 µM (inactive)
- GI50 (OVCAR-5): > 100 µM (inactive)
- GI50 (SNB-75): > 100 µM (inactive)
- GI50 (UACC-62): > 100 µM (inactive)
- GI50 (SF-268): > 100 µM (inactive)
- GI50 (SK-MEL-5): > 100 µM (inactive)
- GI50 (Hs-578T): > 100 µM (inactive)
- GI50 (HCC 2998): > 100 µM (inactive)
- GI50 (A498): > 100 µM (inactive)
- GI50 (MDA-MB-231): > 100 µM (inactive)
- GI50 (SW-620): > 100 µM (inactive)
- GI50 (KM12): > 100 µM (inactive)
- GI50 (EKVX): > 100 µM (inactive)
- GI50 (NCI-H23): > 100 µM (inactive)
- GI50 (HOP-62): > 100 µM (inactive)
- GI50 (NCI-H226): > 100 µM (inactive)
- GI50 (MDA-N): > 100 µM (inactive)
- GI50 (UO-31): > 100 µM (inactive)
- GI50 (CAKI-1): > 100 µM (inactive)
- GI50 (T47D): > 100 µM (inactive)
- GI50 (COLO 205): > 100 µM (inactive)
- GI50 (NCI/ADR-RES): > 100 µM (inactive)
- GI50 (MCF7): > 100 µM (inactive)
- GI50 (OVCAR-4): > 100 µM (inactive)
- GI50 (HCT-15): > 100 µM
- GI50 (RPMI-8226): > 100 µM (inactive)
- GI50 (MOLT-4): > 100 µM (inactive)
- GI50 (ACHN): > 100 µM (inactive)
- GI50 (SN12C): > 100 µM (inactive)
- GI50 (BT-549): > 100 µM (inactive)
- GI50 (HCT-116): > 100 µM (inactive)
- GI50 (Malme-3M): 78 µM (inactive)

SMILES: Nc1cccc2cc(Cl)cnc12
- GI50 (CCRF-CEM): 16.1 µM (inactive)
- GI50 (IGROV-1): > 100 µM (inactive)
- GI50 (RXF 393): > 100 µM (inactive)
- GI50 (OVCAR-8): > 100 µM (inactive)
- GI50 (SK-OV-3): > 100 µM (inactive)
- GI50 (SF-295): > 100 µM (inactive)
- GI50 (U-251): > 100 µM (inactive)
- GI50 (786-0): > 100 µM (inactive)
- GI50 (SR): > 100 µM (inactive)
- GI50 (A549): > 100 µM (inactive)
- GI50 (SK-MEL-28): > 100 µM (inactive)
- GI50 (TK-10): > 100 µM (inactive)
- GI50 (NCI-H522): > 100 µM (inactive)
- GI50 (SNB-19): > 100 µM (inactive)
- GI50 (PC-3): 97.1 µM (inactive)
- GI50 (MDA-MB-435): > 100 µM (inactive)
- GI50 (LOX IMVI): > 100 µM (inactive)
- GI50 (UACC-257): > 100 µM (inactive)
- GI50 (DU-145): > 100 µM (inactive)
- GI50 (OVCAR-3): 96.8 µM (inactive)
- GI50 (HL-60): 22.8 µM (inactive)
- GI50 (SF-539): > 100 µM (inactive)
- GI50 (M14): > 100 µM (inactive)
- GI50 (OVCAR-5): > 100 µM (inactive)
- GI50 (SNB-75): 34.4 µM (inactive)
- GI50 (UACC-62): 56.8 µM (inactive)
- GI50 (SF-268): > 100 µM (inactive)
- GI50 (SK-MEL-5): > 100 µM (inactive)
- GI50 (HOP-92): > 100 µM (inactive)
- GI50 (Hs-578T): 36.3 µM (inactive)
- GI50 (HCC 2998): > 100 µM (inactive)
- GI50 (A498): > 100 µM (inactive)
- GI50 (MDA-MB-231): > 100 µM (inactive)
- GI50 (SW-620): > 100 µM (inactive)
- GI50 (KM12): > 100 µM (inactive)
- GI50 (EKVX): > 100 µM (inactive)
- GI50 (NCI-H23): > 100 µM (inactive)
- GI50 (HOP-62): > 100 µM (inactive)
- GI50 (NCI-H226): > 100 µM (inactive)
- GI50 (MDA-N): > 100 µM (inactive)
- GI50 (UO-31): 26.7 µM (inactive)
- GI50 (CAKI-1): > 100 µM (inactive)
- GI50 (T47D): 15.2 µM (inactive)
- GI50 (COLO 205): > 100 µM (inactive)
- GI50 (NCI/ADR-RES): > 100 µM (inactive)
- GI50 (OVCAR-4): > 100 µM (inactive)
- GI50 (K562): > 100 µM (inactive)
- GI50 (HT-29): > 100 µM (inactive)
- GI50 (HCT-15): > 100 µM
- GI50 (RPMI-8226): > 100 µM (inactive)
- GI50 (MOLT-4): 37.2 µM (inactive)
- GI50 (NCI-H460): > 100 µM (inactive)
- GI50 (ACHN): > 100 µM (inactive)
- GI50 (SN12C): > 100 µM (inactive)
- GI50 (BT-549): > 100 µM (inactive)
- GI50 (HCT-116): > 100 µM (inactive)
- GI50 (Malme-3M): > 100 µM (inactive)
